# Experimental data taken from US5981558A, “DC107 derivatives” (Kyowa Hakko Kogyo Co., Ltd., priority 1996, dated 1999).
# System: HeLa S3 cells
# Test: HeLa S3 Cell Growth Inhibition Test
# Type: cell-based
# Settings: HeLa S3; 72 hours incubation; Neutral Red; read-out: IC50, HeLa S3 cell growth inhibition
# Method: In each well of a 96-well microtiter plate was placed 0.1 mL of HeLa S3 cells having a concentration of 8×10^3 cells/mL and prepared in an MEM culture medium containing 10% fetal bovine serum and 2 mM glutamine. After the cells were incubated overnight at 37° C. in a carbon dioxide incubator, a test compound suitably diluted with a medium was added to the wells in an amount of 0.05 mL for each well. The cells were incubated at 37° C. for 72 hours in a carbon dioxide incubator. After the culture supernatant was removed, 0.1 mL of a culture medium containing 0.02% Neutral Red was added to each well. The cells were then incubated at 37° C. for 1 hour in a carbon dioxide incubator to dye the cells. After the culture supernatant was removed, each residue was rinsed once with physiological saline and the pigment was extracted with 0.001 N hydrochloric acid/30% ethanol. The absorbance at 550 nm of each extract was measured with a microplate reader. The drug concentration required for the 50% inhibition of cell growth, which is referred to as IC50, was calculated by comparing the absorbance for untreated cells with those for cells treated with the drug in known concentrations.
row,Compound,IC50
1,"COC(=O)NCC(=O)OCSC(=O)C(C)(O)C12CC/C(C)=C/C(OC3CCCCO3)C(=O)/C=C/C=C\c3csc(n3)C(C)N(C(=O)C1)[S+]2[O-] (single isomer, unassigned) [Compound 42]",0.047 µM
2,"COC(=O)[C@H](CCC(=O)OCSC(=O)C(C)(O)C12CC/C(C)=C/C(OC3CCCCO3)C(=O)/C=C/C=C\c3csc(n3)C(C)N(C(=O)C1)[S+]2[O-])NC(=O)[C@@]12O[C@@H](CO)[C@@H](O)[C@@H]1OC(C)(C)O2 (single isomer, unassigned) [Compound 65]",0.0031 µM

# Same assay, conditions: Homo sapiens, HeLa S3, 72 h, HeLa S3; 72 hours incubation; Neutral Red; read-out: IC50, HeLa S3 cell growth inhibition
row,Compound,IC50
1,COC(=O)[C@H](CCC(=O)OCSC(=O)C(C)(O)C12CCC(C)=CC(O)C(=O)C=CC=Cc3csc(n3)C(C)N(C(=O)C1)[S+]2[O-])NC(=O)c1ccc(OC(C)=O)cc1 (stereo partly drawn) [Compound 26],0.068 µM
2,CC(=O)Oc1ccc(C(=O)OCSC(=O)C(C)(O)C23CCC(C)=CC(O)C(=O)C=CC=Cc4csc(n4)C(C)N(C(=O)C2)[S+]3[O-])cc1 (stereo not drawn) [Compound 30],0.015 µM
3,CC1=C(CSC(=O)C(C)(O)C23CC/C(C)=C/C(O)C(=O)/C=C/C=C\c4csc(n4)C(C)N(C(=O)C2)[S+]3[O-])C(=O)OC(C)(C)O1 (stereo not drawn) [Compound 121],1.5 µM
4,CCC/C=C(\CSC(=O)C(C)(O)C12CC/C(C)=C/C(OC3(OC)CCOCC3)C(=O)/C=C/C=C\c3csc(n3)C(C)N(C(=O)C1)[S+]2[O-])C(=O)OC (stereo not drawn) [Compound 119],0.87 µM
5,COC(=O)CCC(=O)OCSC(=O)C(C)(O)C12CCC(C)=CC(O)C(=O)C=CC=Cc3csc(n3)C(C)N(C(=O)C1)[S+]2[O-] (stereo not drawn) [Compound 1],0.007 µM
6,COC1(OC2/C=C(\C)CCC3(C(C)(O)C(=O)SCOC(=O)c4cccc(OC(C)=O)c4)CC(=O)N(C(C)c4nc(cs4)/C=C\C=C\C2=O)[S+]3[O-])CCOCC1 (stereo not drawn) [Compound 55],0.011 µM
7,C=C(CSC(=O)C(C)(O)C12CC/C(C)=C/C(O)C(=O)/C=C/C=C\c3csc(n3)C(C)N(C(=O)C1)[S+]2[O-])C(=O)O (stereo not drawn) [Compound 115],> 10 µM
8,CC(=O)OCc1oc(=O)oc1CSC(=O)C(C)(O)C12CC/C(C)=C/C(O)C(=O)/C=C/C=C\c3csc(n3)C(C)N(C(=O)C1)[S+]2[O-] (stereo not drawn) [Compound 90],0.13 µM
9,C=C(CSC(=O)C(C)(O)C12CC/C(C)=C/C(OC3(OC)CCOCC3)C(=O)/C=C/C=C\c3csc(n3)C(C)N(C(=O)C1)[S+]2[O-])C(=O)OC (stereo not drawn) [Compound 113],0.042 µM
10,CC(=O)Oc1ccc(CCCC(=O)OCSC(=O)C(C)(O)C23CCC(C)=CC(O)C(=O)C=CC=Cc4csc(n4)C(C)N(C(=O)C2)[S+]3[O-])cc1 (stereo not drawn) [Compound 33],0.011 µM
11,CC1=CC(O)C(=O)C=CC=Cc2csc(n2)C(C)N2C(=O)CC(C(C)(O)C(=O)SCOC(=O)CNC(=O)[C@@]34O[C@H]5COC(C)(C)O[C@H]5[C@@H]3OC(C)(C)O4)(CC1)[S+]2[O-] (stereo partly drawn) [Compound 19],0.057 µM
12,COC(=O)Nc1cccc(C(=O)OCSC(=O)C(C)(O)C23CCC(C)=CC(O)C(=O)C=CC=Cc4csc(n4)C(C)N(C(=O)C2)[S+]3[O-])c1 (stereo not drawn) [Compound 34],0.055 µM
13,COC1(OC2/C=C(\C)CCC3(C(C)(O)C(=O)SCOC(=O)CNC(=O)OC(C)(C)C)CC(=O)N(C(C)c4nc(cs4)/C=C\C=C\C2=O)[S+]3[O-])CCOCC1 (stereo not drawn) [Compound 39],0.0022 µM
14,COCCOCCOCC(=O)OCc1oc(=O)oc1CSC(=O)C(C)(O)C12CC/C(C)=C/C(OC3(OC)CCOCC3)C(=O)/C=C/C=C\c3csc(n3)C(C)N(C(=O)C1)[S+]2[O-] (stereo not drawn) [Compound 103],0.026 µM

# Same assay, conditions: Homo sapiens, HeLa S3, 72 h, read-out: IC50, HeLa S3 cell growth inhibition, HeLa S3; 72 hours incubation; Neutral Red
row,Compound,IC50
1,C/C1=C\C(OC2CCCCO2)C(=O)/C=C/C=C\c2csc(n2)C(C)N2C(=O)CC(C(C)(O)C(=O)SCc3oc(=O)oc3COC(=O)NCCO)(CC1)[S+]2[O-] (stereo not drawn) [Compound 110],0.022 µM
2,CCCCNC(=O)OCc1oc(=O)oc1CSC(=O)C(C)(O)C12CC/C(C)=C/C(OC3CCCCO3)C(=O)/C=C/C=C\c3csc(n3)C(C)N(C(=O)C1)[S+]2[O-] (stereo not drawn) [Compound 108],0.013 µM
3,CC1=CC(O)C(=O)C=CC=Cc2csc(n2)C(C)N2C(=O)CC(C(C)(O)C(=O)SCOC(=O)c3ccccc3)(CC1)[S+]2[O-] (stereo not drawn) [Compound 6],0.018 µM
4,C/C1=C\C(OC2CCCCO2)C(=O)/C=C/C=C\c2csc(n2)C(C)N2C(=O)CC(C(C)(O)C(=O)SCOC(=O)CCNC(=O)[C@@]34O[C@H]5COC(C)(C)O[C@H]5[C@@H]3OC(C)(C)O4)(CC1)[S+]2[O-] (stereo partly drawn) [Compound 44],0.0086 µM
5,CC1=CC(O)C(=O)C=CC=Cc2csc(n2)C(C)N2C(=O)CC(C(C)(O)C(=O)SCOC(=O)C(C)(C)NC(=O)OC(C)(C)C)(CC1)[S+]2[O-] (stereo not drawn) [Compound 5],0.055 µM
6,C=C(CSC(=O)C(C)(O)C12CC/C(C)=C/C(O)C(=O)/C=C/C=C\c3csc(n3)C(C)N(C(=O)C1)[S+]2[O-])C(=O)N1CCCCC1 (stereo not drawn) [Compound 117],2.1 µM
7,C/C1=C\C(OC2CCCCO2)C(=O)/C=C/C=C\c2csc(n2)C(C)N2C(=O)CC(C(C)(O)C(=O)SCOC(=O)CNC(=O)OC(C)(C)C)(CC1)[S+]2[O-] (stereo not drawn) [Compound 38],0.0038 µM
8,CC(=O)Oc1ccc(CCCC(=O)OCSC(=O)C(C)(O)C23CC/C(C)=C/C(OC4CCCCO4)C(=O)/C=C/C=C\c4csc(n4)C(C)N(C(=O)C2)[S+]3[O-])cc1 (stereo not drawn) [Compound 56],0.00052 µM
9,C/C1=C\C(OC2CCCCO2)C(=O)/C=C/C=C\c2csc(n2)C(C)N2C(=O)CC(C(C)(O)C(=O)SCc3oc(=O)oc3COC(=O)N3CCN(C)CC3)(CC1)[S+]2[O-] (stereo not drawn) [Compound 109],0.052 µM
10,C/C1=C\C(O)C(=O)/C=C/C=C\c2csc(n2)C(C)N2C(=O)CC(C(C)(O)C(=O)SCc3oc(=O)oc3COC(=O)C(C)(C)NC(=O)OC(C)(C)C)(CC1)[S+]2[O-] (stereo not drawn) [Compound 96],0.029 µM
11,C/C1=C\C(O)C(=O)/C=C/C=C\c2csc(n2)C(C)N2C(=O)CC(C(C)(O)C(=O)SCOC(=O)CCNC(=O)[C@@]34O[C@@H](CO)[C@@H](O)[C@@H]3OC(C)(C)O4)(CC1)[S+]2[O-] (stereo partly drawn) [Compound 59],1.3 µM
12,C/C1=C\C(OC2CCCCO2)C(=O)/C=C/C=C\c2csc(n2)C(C)N2C(=O)CC(C(C)(O)C(=O)SCc3oc(=O)oc3COC(=O)Oc3ccc([N+](=O)[O-])cc3)(CC1)[S+]2[O-] (stereo not drawn) [Compound 107],0.021 µM
13,COC(=O)[C@H](CCC(=O)OCSC(=O)C(C)(O)C12CC/C(C)=C/C(OC3CCCCO3)C(=O)/C=C/C=C\c3csc(n3)C(C)N(C(=O)C1)[S+]2[O-])NC(=O)c1ccc(O)cc1 (stereo partly drawn) [Compound 71],0.0012 µM
14,COC(=O)/C(=C/c1ccccc1)CSC(=O)C(C)(O)C12CC/C(C)=C/C(O)C(=O)/C=C/C=C\c3csc(n3)C(C)N(C(=O)C1)[S+]2[O-] (stereo not drawn) [Compound 120],0.27 µM
15,COC(=O)N[C@@H](CCC(=O)OCSC(=O)C(C)(O)C12CCC(C)=CC(O)C(=O)C=CC=Cc3csc(n3)C(C)N(C(=O)C1)[S+]2[O-])C(=O)OC (stereo partly drawn) [Compound 23],0.058 µM
16,CC(=O)Oc1cccc(C(=O)OCSC(=O)C(C)(O)C23CCC(C)=CC(O)C(=O)C=CC=Cc4csc(n4)C(C)N(C(=O)C2)[S+]3[O-])c1 (stereo not drawn) [Compound 31],0.0062 µM
17,CCC/C=C(\CSC(=O)C(C)(O)C12CC/C(C)=C/C(O)C(=O)/C=C/C=C\c3csc(n3)C(C)N(C(=O)C1)[S+]2[O-])C(=O)OC (stereo not drawn) [Compound 118],0.58 µM
18,COC(=O)[C@H](CCC(=O)OCSC(=O)C(C)(O)C12CC/C(C)=C/C(O)C(=O)/C=C/C=C\c3csc(n3)C(C)N(C(=O)C1)[S+]2[O-])NC(=O)C(C)(CO)CO (stereo partly drawn) [Compound 61],0.72 µM
19,C/C1=C\C(OC2CCCCO2)C(=O)/C=C/C=C\c2csc(n2)C(C)N2C(=O)CC(C(C)(O)C(=O)SCc3oc(=O)oc3COC=O)(CC1)[S+]2[O-] (stereo not drawn) [Compound 89],0.041 µM
20,C/C1=C\C(OC2CCCCO2)C(=O)/C=C/C=C\c2csc(n2)C(C)N2C(=O)CC(C(C)(O)C(=O)SCc3oc(=O)oc3CCl)(CC1)[S+]2[O-] (stereo not drawn) [Compound 74],0.019 µM
21,C/C1=C\C(OC2CCCCO2)C(=O)/C=C/C=C\c2csc(n2)C(C)N2C(=O)CC(C(C)(O)C(=O)SCOC(=O)CNC(=O)[C@@]34O[C@H]5COC(C)(C)O[C@H]5[C@@H]3OC(C)(C)O4)(CC1)[S+]2[O-] (stereo partly drawn) [Compound 43],0.024 µM
22,COC(=O)[C@H](CCC(=O)OCSC(=O)C(C)(O)C12CC/C(C)=C/C(OC3CCCCO3)C(=O)/C=C/C=C\c3csc(n3)C(C)N(C(=O)C1)[S+]2[O-])NC(=O)[C@@]12O[C@H]3COC(C)(C)O[C@H]3[C@@H]1OC(C)(C)O2 (stereo partly drawn) [Compound 49],0.03 µM
23,C/C1=C\C(OC2CCCCO2)C(=O)/C=C/C=C\c2csc(n2)C(C)N2C(=O)CC(C(C)(O)C(=O)SCOC(=O)c3cccc(O)c3)(CC1)[S+]2[O-] (stereo not drawn) [Compound 69],0.076 µM

# Same assay, conditions: Homo sapiens; HeLa S3; 72 hours incubation; Neutral Red; read-out: IC50, HeLa S3 cell growth inhibition
row,Compound,IC50
1,CCOC(=O)N1CCC2(CC1)OC(=O)C(CSC(=O)C(C)(O)C13CC/C(C)=C/C(O)C(=O)/C=C/C=C\c4csc(n4)C(C)N(C(=O)C1)[S+]3[O-])=C(C)O2 (stereo not drawn) [Compound 126],5.5 µM
2,C/C1=C\C(OC2CCCCO2)C(=O)/C=C/C=C\c2csc(n2)C(C)N2C(=O)CC(C(C)(O)C(=O)SCOC(=O)c3cccc(OP(=O)(O)O)c3)(CC1)[S+]2[O-] (stereo not drawn) [Compound 73],1.9 µM

# Same assay, conditions: read-out: IC50, HeLa S3 cell growth inhibition; HeLa S3; 72 hours incubation; Neutral Red
row,Compound,IC50
1,"C/C1=C\C(OC2CCCCO2)C(=O)/C=C/C=C\c2csc(n2)C(C)N2C(=O)CC(C(C)(O)C(=O)SCOC(=O)CNC(=O)[C@@]34O[C@@H](CO)[C@@H](O)[C@@H]3OC(C)(C)O4)(CC1)[S+]2[O-] (single isomer, unassigned) [Compound 63]",0.27 µM
